# Experimental data from paper PMC7144530 (The Journal of Experimental Medicine, 2020).
# Tested on: CD8 T cells (CD4-depleted splenocytes)
# Assay: IFN-gamma ELISpot of CD8 T cells from mice immunized with mutant SLP + adjuvant
# Assay type: in vivo, mouse
# Conditions: long peptide ELISpot, immunized vs control; positivity needs effect size ≥2
sequence,measurement,value
IYEFDYHLYGQNITMIMTSVSGHL [Mutation C-117],fold-change of IFN-gamma spot counts after vaccination,1.94
